Active and inactive are the calls of the source. How the calls were made is not given here.
Tested on: CCRIS mutagenicity, Ames/micronucleus/aberration tests
Test: CCRIS mutagenicity studies
[1] = Test System: AMES SALMONELLA TYPHIMURIUM, Strain/Indicator: TA100, Metabolic Activation: NONE, Method: PREINCUBATION
[2] = Test System: AMES SALMONELLA TYPHIMURIUM, Strain/Indicator: TA100, Metabolic Activation: RAT, LIVER, S-9, AROCLOR 1254, Method: PREINCUBATION
[3] = Test System: AMES SALMONELLA TYPHIMURIUM, Strain/Indicator: TA98, Metabolic Activation: NONE, Method: STANDARD PLATE
[4] = Test System: AMES SALMONELLA TYPHIMURIUM, Strain/Indicator: TA100, Metabolic Activation: NONE, Method: STANDARD PLATE
[5] = Test System: AMES SALMONELLA TYPHIMURIUM, Strain/Indicator: TA1535, Metabolic Activation: NONE, Method: STANDARD PLATE

COc1cc(-c2cc(=O)c3c(O)cc(O)cc3o2)ccc1O was tested, and the mutagenic call (Test System: Ames Salmonella typhimurium, Strain/Indicator: TA98, Metabolic Activation: None, Method: Standard plate) was “inactive; negative” and the mutagenic call (Test System: Ames Salmonella typhimurium, Strain/Indicator: TA98, Metabolic Activation: Rat, Liver, S-9, Aroclor 1254, Method: Standard plate) was “inactive; negative”.
With C=C(Cl)C#N the mutagenic call [1] was “inactive; negative” and the mutagenic call [2] was “inactive; negative”.
For CCOC(=O)CNC(=O)CCCCSc1ncnc2nc[nH]c12, the mutagenic call (Test System: AMES SALMONELLA TYPHIMURIUM, Strain/Indicator: TA97, Metabolic Activation: NONE, Method: STANDARD PLATE) was “inactive; negative”, the mutagenic call (Test System: AMES SALMONELLA TYPHIMURIUM, Strain/Indicator: TA97, Metabolic Activation: RAT, LIVER, S-9, PHENOBARBITAL AND ALPHA-NAPHTHOFLAVONE, Method: STANDARD PLATE) was “inactive; negative” and the mutagenic call [3] was “inactive; negative”. For the same compound, the mutagenic call (Test System: AMES SALMONELLA TYPHIMURIUM, Strain/Indicator: TA98, Metabolic Activation: RAT, LIVER, S-9, PHENOBARBITAL AND ALPHA-NAPHTHOFLAVONE, Method: STANDARD PLATE) was “inactive; negative”, the mutagenic call [4] was “inactive; negative” and the mutagenic call (Test System: AMES SALMONELLA TYPHIMURIUM, Strain/Indicator: TA100, Metabolic Activation: RAT, LIVER, S-9, PHENOBARBITAL AND ALPHA-NAPHTHOFLAVONE, Method: STANDARD PLATE) was “inactive; negative”. For the same compound, the mutagenic call [5] was “inactive; negative” and the mutagenic call (Test System: AMES SALMONELLA TYPHIMURIUM, Strain/Indicator: TA1535, Metabolic Activation: RAT, LIVER, S-9, PHENOBARBITAL AND ALPHA-NAPHTHOFLAVONE, Method: STANDARD PLATE) was “inactive; negative”.
With C=CC(=O)OCC the mutagenic call (End Point: IN VITRO CHROMOSOMAL ABERRATIONS, Test System: CHO-LB CELLS, Metabolic Activation: NONE) was “inactive; negative”, the mutagenic call (End Point: IN VITRO CHROMOSOMAL ABERRATIONS, Test System: CHO-LB CELLS, Metabolic Activation: RAT, LIVER, S-9, AROCLOR 1254) was “active; positive” and the mutagenic call (Test System: AMES SALMONELLA TYPHIMURIUM, Strain/Indicator: TA98, Metabolic Activation: HAMSTER, LIVER, S-9, AROCLOR 1254, Method: PREINCUBATION) was “inactive; negative”. The mutagenic call (Test System: AMES SALMONELLA TYPHIMURIUM, Strain/Indicator: TA98, Metabolic Activation: NONE, Method: PREINCUBATION) was “inactive; negative”, the mutagenic call [3] was “inactive; negative” and the mutagenic call (Test System: AMES SALMONELLA TYPHIMURIUM, Strain/Indicator: TA98, Metabolic Activation: RAT, LIVER, S-9, AROCLOR 1254, Method: PREINCUBATION) was “inactive; negative”. The mutagenic call (Test System: AMES SALMONELLA TYPHIMURIUM, Strain/Indicator: TA98, Metabolic Activation: RAT, LIVER, S-9, AROCLOR 1254, Method: STANDARD PLATE) was “inactive; negative”, the mutagenic call (Test System: AMES SALMONELLA TYPHIMURIUM, Strain/Indicator: TA98, Metabolic Activation: RAT, LIVER, S-9, SODIUM PHENOBARBITAL, Method: STANDARD PLATE) was “inactive; negative” and the mutagenic call (Test System: AMES SALMONELLA TYPHIMURIUM, Strain/Indicator: TA100, Metabolic Activation: HAMSTER, LIVER, S-9, AROCLOR 1254, Method: PREINCUBATION) was “inactive; negative”. The mutagenic call [1] was “inactive; negative”, the mutagenic call [4] was “inactive; negative” and the mutagenic call [2] was “inactive; negative”. For the same compound, the mutagenic call (Test System: AMES SALMONELLA TYPHIMURIUM, Strain/Indicator: TA100, Metabolic Activation: RAT, LIVER, S-9, AROCLOR 1254, Method: STANDARD PLATE) was “inactive; negative”, the mutagenic call (Test System: AMES SALMONELLA TYPHIMURIUM, Strain/Indicator: TA100, Metabolic Activation: RAT, LIVER, S-9, SODIUM PHENOBARBITAL, Method: STANDARD PLATE) was “inactive; negative” and the mutagenic call (Test System: AMES SALMONELLA TYPHIMURIUM, Strain/Indicator: TA1535, Metabolic Activation: HAMSTER, LIVER, S-9, AROCLOR 1254, Method: PREINCUBATION) was “inactive; negative”. For the same compound, the mutagenic call (Test System: AMES SALMONELLA TYPHIMURIUM, Strain/Indicator: TA1535, Metabolic Activation: NONE, Method: PREINCUBATION) was “inactive; negative”, the mutagenic call [5] was “inactive; negative” and the mutagenic call (Test System: AMES SALMONELLA TYPHIMURIUM, Strain/Indicator: TA1535, Metabolic Activation: RAT, LIVER, S-9, AROCLOR 1254, Method: PREINCUBATION) was “inactive; negative”. The mutagenic call (Test System: AMES SALMONELLA TYPHIMURIUM, Strain/Indicator: TA1535, Metabolic Activation: RAT, LIVER, S-9, AROCLOR 1254, Method: STANDARD PLATE) was “inactive; negative”, the mutagenic call (Test System: AMES SALMONELLA TYPHIMURIUM, Strain/Indicator: TA1535, Metabolic Activation: RAT, LIVER, S-9, SODIUM PHENOBARBITAL, Method: STANDARD PLATE) was “inactive; negative” and the mutagenic call (Test System: AMES SALMONELLA TYPHIMURIUM, Strain/Indicator: TA1537, Metabolic Activation: HAMSTER, LIVER, S-9, AROCLOR 1254, Method: PREINCUBATION) was “inactive; negative”. The mutagenic call (Test System: AMES SALMONELLA TYPHIMURIUM, Strain/Indicator: TA1537, Metabolic Activation: NONE, Method: PREINCUBATION) was “inactive; negative”, the mutagenic call (Test System: AMES SALMONELLA TYPHIMURIUM, Strain/Indicator: TA1537, Metabolic Activation: NONE, Method: STANDARD PLATE) was “inactive; negative” and the mutagenic call (Test System: AMES SALMONELLA TYPHIMURIUM, Strain/Indicator: TA1537, Metabolic Activation: RAT, LIVER, S-9, AROCLOR 1254, Method: PREINCUBATION) was “inactive; negative”. The mutagenic call (Test System: AMES SALMONELLA TYPHIMURIUM, Strain/Indicator: TA1537, Metabolic Activation: RAT, LIVER, S-9, AROCLOR 1254, Method: STANDARD PLATE) was “inactive; negative”, the mutagenic call (Test System: AMES SALMONELLA TYPHIMURIUM, Strain/Indicator: TA1537, Metabolic Activation: RAT, LIVER, S-9, SODIUM PHENOBARBITAL, Method: STANDARD PLATE) was “inactive; negative” and the mutagenic call (Test System: AMES SALMONELLA TYPHIMURIUM, Strain/Indicator: TA1538, Metabolic Activation: NONE, Method: STANDARD PLATE) was “inactive; negative”. The mutagenic call (Test System: AMES SALMONELLA TYPHIMURIUM, Strain/Indicator: TA1538, Metabolic Activation: RAT, LIVER, S-9, AROCLOR 1254, Method: STANDARD PLATE) was “inactive; negative”, the mutagenic call (Test System: AMES SALMONELLA TYPHIMURIUM, Strain/Indicator: TA1538, Metabolic Activation: RAT, LIVER, S-9, SODIUM PHENOBARBITAL, Method: STANDARD PLATE) was “inactive; negative” and the mutagenic call (Test System: Ames Salmonella typhimurium, Strain/Indicator: YG7108pin3ERb5, Metabolic Activation: None, Method: Standard plate) was “inactive; negative”. The mutagenic call (Test System: CHINESE HAMSTER OVARY, Strain/Indicator: CHO-K1-BH4 (HGPRT)/6-THIOGUANINE, Metabolic Activation: NONE, Method: SUSPENSION/PLATE) was “active; positive”, the mutagenic call (Test System: CHINESE HAMSTER OVARY, Strain/Indicator: CHO-K1-BH4 (HGPRT), Metabolic Activation: NONE, Method: MONOLAYER) was “active; positive” and the mutagenic call (Test System: CHINESE HAMSTER OVARY, Strain/Indicator: CHO-K1-BH4 (HGPRT), Metabolic Activation: NONE, Method: SUSPENSION/PLATE) was “active; positive”. The mutagenic call (Test System: MOUSE LYMPHOMA, Strain/Indicator: L5178Y (TK+/TK-), Metabolic Activation: RAT, LIVER, S-9, AROCLOR 1254, Method: SUSPENSION/PLATE) was “active; positive. reevaluation of results: positive” and the mutagenic call (Test System: MOUSE LYMPHOMA, Strain/Indicator: L5178Y (TK+/TK-), Metabolic Activation: RAT, LIVER, S-9, AROCLOR, Method: SUSPENSION/PLATE) was “active; positive”.
In the case of COC1=CC(=O)OC(/C=C/c2ccccc2)C1 (centres undefined), the mutagenic call (Test System: L5178Y ( tk+/tk-), Metabolic Activation: Human, Liver, S-9, Method: Suspension/plate) is reported as “inactive; negative”.
For CC(C)c1cccc(C(C)C)c1O, the mutagenic call (End Point: IN VIVO CHROMOSOMAL ABERRATIONS, Test System: PERIPHERAL BLOOD LYMPHOCYTES, Species: HUMAN, Strain/Sex: MALE, FEMALE, Route: IV) was “inactive; negative”.
